We go through two compounds from PMC9254247, “Dual-sensitive antibacterial peptide nanoparticles prevent dental caries” (Theranostics, 2022).

No end group written: not given here.

For one series, the system named is S. mutans UA159 biofilm. Briefly: S. mutans biofilm treatment in vitro on glass slides. Type of series: cell-based, Streptococcus mutans. To be noted: 55 μM; 10 min every 12 h, 3 times; confocal (Figure S10A-B). The procedure:
a concentration of 1×10^8 CFU/mL. pHly-1 NPs and CHX were diluted in BHI containing 1% sucrose to reach a series of concentration s and added to 96-well microplates (180 μL). Then, 2 μL S.mutans suspensions were seeded into 96-well microplates in the presence of different concentrations of pHly -1 NPs and CHX and the plate was incubated at 37 °C. After 24 h, the culture supernatants were gently discarded, and each well was rinsed three times with PBS (pH 7.0) to remove unattached bacteria. The bacterial viability was measured by methyl thiazol tetrazolium (MTT) assay. […] The MTT assay was performed to determined the minimum biofilm inhibition concentration (MBIC 50) by using the Microplate Reader at OD 490 nm 7. […]
S.mutans biofilm treatment in vitro, characterization and quantitative analysis.
Biofilms were formed on circular glass slides in a 24-well plate. […] B iofilms formed on glass slides were used for SEM, fluorescent staining and bacterial quantitative analyses. […]
For quantitative analysis9,10, after the treatment was finished, biofilms were removed from the glass slides and homogenized by water bath sonication followe d by probe sonication at an output of 7 W for 30 s (Branson Sonifier 150, Branson Ultrasonics). […] The effect of pHly- 1 NPs or CHX on biofilms was measured by counting the CFU of alive bacteria with agar plating after incubation for 48 h at 37 °C. […]

The test system of another series is pepsin. Nature of the series: Degradation by pepsin (RP-HPLC). To be noted: peptide 100 µg/mL, pepsin 10 µg/mL, Tris buffer pH 4.0, 37 °C, 5 min, MALDI-TOF MS. The series is classed as in vitro ADME. The procedure: Figure 7 The biosafety of pHly-1 NPs to normal oral and gastric organoids. […] (B and C) The representative gastric organoid images (B) and oral organoid images (C) after 500 µM pHly-1 NPs or CHX treatment. (D and E) the viability of gastric (D) and oral (E) organoids after treatment with pHly-1 NPs or CHX was assessed by CellTiter-Blue cell viability assay. Scale bar, 100 µm. Each experiment was repeated 3 times. (F) RP-HPLC analysis of pHly-1 NPs degradation by pepsin. pHly-1 NPs (100 µg/mL) was incubated with pepsin (10 µg/mL) in Tris buffer (pH 4.0) at 37 °C for 5 min and submitted to RP-HPLC analysis. The HPLC fractions were analyzed by MALDI-TOF MS. The black arrow represents the intact peptide of pHly-1 NPs and the molecular weight is 2865.1 Da (Figure S14). After 5 min of pepsin hydrolysis, the molecular weight of the mainly peptide fragment is 1650.6 Da (Figure S14). All of the data are represented as average ± s.d.

In the case of `[H]/N=C(\N/C(=N/[H])NCCCCCCNC(=N)NC(=N)Nc1ccc(Cl)cc1)Nc1ccc(Cl)cc1` [CHX, chlorhexidine], the “suppression effect on pre-formed biofilm” value with S. mutans UA159 biofilm is “almost negligible”.

Regarding “KIWFHAMHIIAHFIAHQHLHQHL-NH2 [pHly-1 NPs]”, the degradation by pepsin result in the series with pepsin is given as “rapidly degraded”.
